This is an account of results in patent US11964972B2, “Salt form” (CRT Pioneer Fund LP, priority 2018, dated 2024).

Like-named read-outs stand apart in the source and are kept apart here.

Broadly, the Solubility is how much of the substance goes into solution per volume. The low end stands for a poorly soluble substance, the high end for a readily soluble substance.

The target in one series is T1, MPS1 kinase (Homo sapiens, UniProt P33981).
T1 sequence (P33981 1-857): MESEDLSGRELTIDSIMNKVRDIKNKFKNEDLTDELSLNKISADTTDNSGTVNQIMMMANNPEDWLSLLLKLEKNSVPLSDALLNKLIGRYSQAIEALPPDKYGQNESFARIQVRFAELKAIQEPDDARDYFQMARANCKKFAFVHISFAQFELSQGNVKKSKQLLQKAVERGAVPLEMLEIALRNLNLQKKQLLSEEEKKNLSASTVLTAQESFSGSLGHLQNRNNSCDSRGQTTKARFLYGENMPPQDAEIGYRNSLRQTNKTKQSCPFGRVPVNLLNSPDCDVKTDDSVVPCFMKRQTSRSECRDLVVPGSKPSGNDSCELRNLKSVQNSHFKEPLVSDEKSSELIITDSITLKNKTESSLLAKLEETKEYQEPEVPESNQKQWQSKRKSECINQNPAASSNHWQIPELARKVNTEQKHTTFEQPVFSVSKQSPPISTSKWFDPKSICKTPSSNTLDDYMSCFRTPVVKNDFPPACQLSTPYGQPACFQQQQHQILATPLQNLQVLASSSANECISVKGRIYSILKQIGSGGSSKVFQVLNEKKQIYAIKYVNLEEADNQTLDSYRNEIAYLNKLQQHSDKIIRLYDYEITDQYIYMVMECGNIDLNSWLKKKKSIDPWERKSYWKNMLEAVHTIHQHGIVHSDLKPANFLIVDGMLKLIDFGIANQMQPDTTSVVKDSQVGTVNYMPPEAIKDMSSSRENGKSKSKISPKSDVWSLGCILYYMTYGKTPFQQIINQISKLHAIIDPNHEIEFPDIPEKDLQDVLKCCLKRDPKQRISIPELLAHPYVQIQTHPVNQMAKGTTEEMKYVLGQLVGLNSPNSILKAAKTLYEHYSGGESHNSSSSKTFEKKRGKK
Particulars: background statement; WO 2014/037750; cited from earlier work.

Series [1] in a line: Recrystallisation studies (XRPD form classification). Type of series: physicochemical. As to the method:
The ditosylate salt of the compound of formula I (about 100 mg) was suspended in a designated volume of water miscible solvent at a given temperature, followed by the addition of one volume aliquots of pre-heated water until dissolution was achieved. The agitated mixtures were then cooled to 20° C. and agitated for about 16 hours. […] Solvent, solvent ratios and form classification of the isolated solids are detailed in Table 2.

The conditions of series [2]: for Solubility: Form A, 37° C., minimum of 23 hours; for pH: pH of the aqueous mixture. The method, then:
Crystalline ditosylate salt of the compound of formula I (about 40 mg, Form A) was suspended by gentle shaking in various aqueous buffers, biologically relevant media and formulation vehicles, 2×0.5 ml, at ambient temperature, ca 20° C. The mixtures were then heated to 37° C. with agitation for a minimum of 23 hours. The pH of the aqueous mixtures were also measured.
Table 1 presents the pH measurements and the solubility in various dissolution media.

For series [3] the following is noted: 40° C. and 75% RH, 3 weeks. The method, then: The ditosylate salt of the compound of formula I was stored at 40° C. and 75% RH in loose screw top vials for 3 weeks.
The procedure of series [4]: The ability of samples studied to absorb moisture (or not) over a set of well-determined humidity ranges was assessed. Sorption isotherms were obtained using a Hiden Isochema moisture sorption analyser (model IGAsorp), controlled by IGAsorp Systems Software V6.50.48. The sample was maintained at a constant temperature (25° C.) by the instrument controls. The humidity was controlled by mixing streams of dry and wet nitrogen, with a total flow of 250 ml·min^−1. The instrument was verified for relative humidity content by measuring three calibrated Rotronic salt solutions (10-50-88%). The weight change of the sample was monitored as a function of humidity by a microbalance (accuracy +/−0.005 mg). A defined amount of sample (typically 10-15 mg powder) was placed in a tared mesh stainless steel basket under ambient conditions. A full experimental cycle typically consisted of three scans (desorption, sorption, and desorption) at a constant temperature (25° C.) and 10% RH intervals over a 0-90% range (60 minutes for each humidity level). Solids are then held post cycle at 0% RH for 2-3 hours and tested by XRPD and the remainder held at 90% RH for 2-3 hours and re-tested by XRPD.

For series [5] the following is noted: for XRPD classification: 20/40° C. cycling. As to the method:
The equilibration of a solid in various solvents with temperature modulation is an accepted approach to investigate the form stability of a solid and the generation of alternate modifications, polymorphs/solvates of the material.
The ditosylate of the compound of formula I, 35 mg, was subjected to equilibration in various solvents with agitation at 20° C. for 90 hours, 40° C. for 3 hours, cooled to 20° C. over 3 hours, then heated to 40° C. for 16 hours and cooled to 20° C. The solvents were initially charged to the salts in aliquots, 0.25 ml, until dissolution was observed or a volume of 2 ml achieved. The solids were isolated by filtration and dried in vacuo at 50° C. for about 16 hours and then analysed by XRPD.

The mark [6] stands for this setting: from 0 to 90% RH, 25° C., Form A.

As for `CCOc1cc(-c2nncn2C)ccc1Nc1ncc2cc(C)nc(NCC(C)(C)C)c2n1` [compound I, N2-(2-ethoxy-4-(4-methyl-4H-1,2,4-triazol-3-yl)phenyl)-6-methyl-N8-neopentylpyrido[3,4-d]pyrimidine-2,8-diamine], on MPS1 kinase, the “MPS1 kinase inhibitory activity” value was “potent MPS1 kinase inhibitory activity”.

Take `CCOc1cc(-c2nncn2C)ccc1Nc1ncc2cc(C)nc(NCC(C)(C)C)c2n1.Cc1ccc(S(=O)(=O)O)cc1.Cc1ccc(S(=O)(=O)O)cc1` [ditosylate Form C, ditosylate salt of N2-(2-ethoxy-4-(4-methyl-4H-1,2,4-triazol-3-yl)phenyl)-6-methyl-N8-neopentylpyrido[3,4-d]pyrimidine-2,8-diamine Form C]: the “Form stability on thermal manipulation (XRPD, DSC)” value in series [1] (solid isolated from exclusively ethanol, FIG. 5, FIG. 6) is “metastable form that could be thermally converted to ditosylate Form A”.

As for `CCOc1cc(-c2nncn2C)ccc1Nc1ncc2cc(C)nc(NCC(C)(C)C)c2n1.Cc1ccc(S(=O)(=O)O)cc1.Cc1ccc(S(=O)(=O)O)cc1` [ditosylate salt of N2-(2-ethoxy-4-(4-methyl-4H-1,2,4-triazol-3-yl)phenyl)-6-methyl-N8-neopentylpyrido[3,4-d]pyrimidine-2,8-diamine], the Solubility in series [2] (FaSSIF) was 14210 µg/mL; in series [2] (FeSSIF) it was 1690 µg/mL; in series [2] (NaCl,0.9%/DMSO/Tween 20) it was 12690 µg/mL; in series [2] (PEG300), 2900 µg/mL; in series [2] (Phosphate buffer) it was 2240 µg/mL; in series [2] (SFaGF) it was 5720 µg/mL. For the same compound, the Solubility in series [2] (Sodium chloride 0.9% w/v) worked out at 9580 µg/mL; in series [2] (Water, deionised), 5850 µg/mL. In addition, the pH in series [2] (Acetate buffer) is 4.33; in series [2] (FaSSIF), 2.41; in series [2] (FeSSIF), 3.05; in series [2] (NaCl,0.9%/DMSO/Tween 20), 1.97; in series [2] (Phosphate buffer), 2.56; in series [2] (SFaGF), 1.40. In addition, the pH in series [2] (Sodium chloride 0.9% w/v) is reported as 2.01; in series [2] (Water, deionised) it was 2.13. For the same compound, the “Chemical degradation after storage” value in series [3] was “no evidence of chemical degradation”. Besides, the Hydration following storage result in series [3] is listed as “no evidence”. Moreover, the “Form modification after storage (XRPD)” value in series [3] (FIG. 4) is “No evidence of form modification”. In series [3] (loose screw top vials), the “Change in appearance after storage” value is given as “No change in appearance”. Further, the “Form change post DVS and at the extremes of humidity (XRPD)” value in series [4] (0% RH and 90% RH, FIG. 8) is “no evidence of form change”. In addition, the DVS profile result in series [4] (0-90% RH, 25° C., Form A, FIG. 7) was “reversible water uptake over the humidity range and no hysteresis”. The Water uptake/loss in series [4] (setting [6]) is reported as 2.13%. The “Water uptake/loss as equivalents of water” value in series [4] (setting [6]) is recorded as “about 1.0 equivalents of water”. Moreover, the “XRPD Observations” value was “Form A” in series [1] (2-butanone 8 volumes, water 1 volume, 80 ° C.); “Form A” in series [1] (2-propanol 8 volumes, water 1 volume, 80 ° C.); “Form A” in series [1] (Acetone 10 volumes, water 2 volumes, 60 ° C.); “Form A” in series [1] (Acetonitrile 2 volumes, water 1 volume, 60 ° C.); “Form A” in series [1] (Ethanol 2 volumes, water 1 volume, 60 ° C.); “Form C” in series [1] (Ethanol 15 volumes, no water, 80 ° C.). The XRPD classification entry in series [5] (equilibration in 1,4-Dioxane), in series [5] (equilibration in 1-Butanol), in series [5] (equilibration in 2-Chlorobutane), in series [5] (equilibration in 2-Methyltetrahydrofuran), in series [5] (equilibration in 2-Propanol) and in series [5] (equilibration in 3-Methyl-1-butanol) was “Form A” each time. Also, the XRPD classification entry in series [5] (equilibration in Acetonitrile), in series [5] (equilibration in Chlorobenzene), in series [5] (equilibration in Ethyl acetate), in series [5] (equilibration in Heptane), in series [5] (equilibration in Isopropyl acetate) and in series [5] (equilibration in Methanol) was “Form A” in each case. In addition, the XRPD classification result in series [5] (equilibration in Methyl isobutyl ketone), in series [5] (equilibration in Methylcyclohexane), in series [5] (equilibration in Nitromethane), in series [5] (equilibration in TBME), in series [5] (equilibration in Toluene) and in series [5] (equilibration in Trifluorotoluene) was “Form A” each time. Further, the XRPD classification result in series [5] (equilibration in Water) and in series [5] (equilibration in n-Butyl acetate) was “Form A” each time. Besides, the “Propensity to exhibit version or polymorphic variance” value in series [5] (summary of the polymorphism studies) was “remarkable lack of propensity to exhibit version or polymorphic variance”.
